# According to patent US20230117680A1, “CYCLOPHILIN D INHIBITORS AND USES THEREOF” (The Broad Institute, Inc., priority 2019, published 2023):
# Entries after “also recorded” stand apart in the source; their conditions may differ.
# How the values were obtained:
# NKTR = target: T1, NKTR (Homo sapiens, UniProt P30414); assay: chymotrypsin coupled PPIase assay, NKTR inhibition; type: biochemical; settings: result in words
# T1 sequence (P30414 1-1462): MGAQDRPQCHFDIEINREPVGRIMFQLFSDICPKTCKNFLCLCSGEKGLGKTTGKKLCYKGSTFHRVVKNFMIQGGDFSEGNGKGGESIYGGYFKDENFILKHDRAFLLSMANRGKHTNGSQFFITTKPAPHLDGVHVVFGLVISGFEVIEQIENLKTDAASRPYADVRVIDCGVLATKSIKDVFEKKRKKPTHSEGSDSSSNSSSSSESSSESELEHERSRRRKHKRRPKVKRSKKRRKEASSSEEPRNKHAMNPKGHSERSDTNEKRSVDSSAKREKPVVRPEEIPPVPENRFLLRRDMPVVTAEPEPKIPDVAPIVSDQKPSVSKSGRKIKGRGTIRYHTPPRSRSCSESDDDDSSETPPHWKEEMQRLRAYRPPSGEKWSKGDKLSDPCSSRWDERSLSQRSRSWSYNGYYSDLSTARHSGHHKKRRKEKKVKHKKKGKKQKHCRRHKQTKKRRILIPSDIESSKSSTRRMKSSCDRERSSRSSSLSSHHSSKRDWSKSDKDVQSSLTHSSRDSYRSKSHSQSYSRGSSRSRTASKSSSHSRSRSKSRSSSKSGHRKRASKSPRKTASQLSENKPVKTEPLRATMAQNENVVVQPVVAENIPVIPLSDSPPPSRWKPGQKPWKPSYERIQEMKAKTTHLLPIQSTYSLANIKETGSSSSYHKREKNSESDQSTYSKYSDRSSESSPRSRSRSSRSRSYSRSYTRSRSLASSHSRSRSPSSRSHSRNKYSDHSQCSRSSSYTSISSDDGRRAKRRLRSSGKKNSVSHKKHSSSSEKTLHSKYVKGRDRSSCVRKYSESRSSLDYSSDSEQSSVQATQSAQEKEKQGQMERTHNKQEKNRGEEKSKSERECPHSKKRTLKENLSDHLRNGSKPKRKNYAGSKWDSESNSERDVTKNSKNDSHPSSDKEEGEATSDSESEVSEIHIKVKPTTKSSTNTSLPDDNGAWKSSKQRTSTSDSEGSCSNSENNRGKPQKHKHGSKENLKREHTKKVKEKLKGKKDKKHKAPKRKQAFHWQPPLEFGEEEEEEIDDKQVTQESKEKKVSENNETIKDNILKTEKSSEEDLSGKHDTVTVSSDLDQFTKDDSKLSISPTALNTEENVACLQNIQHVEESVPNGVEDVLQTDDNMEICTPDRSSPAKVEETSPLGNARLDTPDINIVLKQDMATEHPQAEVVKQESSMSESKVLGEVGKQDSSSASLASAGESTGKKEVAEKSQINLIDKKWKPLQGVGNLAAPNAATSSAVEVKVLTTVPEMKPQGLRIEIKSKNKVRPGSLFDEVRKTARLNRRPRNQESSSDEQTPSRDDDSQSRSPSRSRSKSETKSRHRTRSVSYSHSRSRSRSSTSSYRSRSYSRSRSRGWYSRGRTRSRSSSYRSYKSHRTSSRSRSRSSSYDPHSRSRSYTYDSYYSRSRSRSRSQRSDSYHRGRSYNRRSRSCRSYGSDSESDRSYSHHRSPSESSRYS
# Experimental: (§1) Following the synthesis of the indicated library members, in vitro inhibition (IC50) assays of these hits were conducted to obtain IC50 inhibitory data. For the IC50 assays, a chymotrypsin coupled PPIase assay using Suc-AAPF-AMC as the peptide substrate was used, whereby isomerization of a peptide substrate Suc-AAPF-AMC from the cis to trans conformation allowed for proteolysis via excess a-chymotrypsin, releasing the C-terminal coumarin fluorophore. […] Other non-inhibitor library members were also checked for binding via SPR, but produced the same profile as the prolyl isomerase assay.
# (§2) Subsequently, to determine if the compounds could both access the S2 pocket and display CypD specificity, JOMBtrans and compound 49 were screened against the 10 other cyclophilins with reported prolyl isomerase activity. […] Co-crystal structures of JOMBtrans and 49 were solved with CypD. […] Three further H-bonds with the macrocycle's backbone and CypD were observed along with a cation-n interaction. […] The benzyl group on the piperidine ring altered the conformation of the macrocycle to open up two new hydrogen bonding interactions with CypD. […] This improvement in specificity compared to JOMBtrans signified that more CypD specific compounds can be garnered by derivatization into the S2 pocket.
# CypG = target: T2, CypG (Homo sapiens, UniProt Q13427); assay: chymotrypsin coupled PPIase assay, CypG inhibition; type: biochemical; settings: result in words
# T2 sequence (Q13427 1-754): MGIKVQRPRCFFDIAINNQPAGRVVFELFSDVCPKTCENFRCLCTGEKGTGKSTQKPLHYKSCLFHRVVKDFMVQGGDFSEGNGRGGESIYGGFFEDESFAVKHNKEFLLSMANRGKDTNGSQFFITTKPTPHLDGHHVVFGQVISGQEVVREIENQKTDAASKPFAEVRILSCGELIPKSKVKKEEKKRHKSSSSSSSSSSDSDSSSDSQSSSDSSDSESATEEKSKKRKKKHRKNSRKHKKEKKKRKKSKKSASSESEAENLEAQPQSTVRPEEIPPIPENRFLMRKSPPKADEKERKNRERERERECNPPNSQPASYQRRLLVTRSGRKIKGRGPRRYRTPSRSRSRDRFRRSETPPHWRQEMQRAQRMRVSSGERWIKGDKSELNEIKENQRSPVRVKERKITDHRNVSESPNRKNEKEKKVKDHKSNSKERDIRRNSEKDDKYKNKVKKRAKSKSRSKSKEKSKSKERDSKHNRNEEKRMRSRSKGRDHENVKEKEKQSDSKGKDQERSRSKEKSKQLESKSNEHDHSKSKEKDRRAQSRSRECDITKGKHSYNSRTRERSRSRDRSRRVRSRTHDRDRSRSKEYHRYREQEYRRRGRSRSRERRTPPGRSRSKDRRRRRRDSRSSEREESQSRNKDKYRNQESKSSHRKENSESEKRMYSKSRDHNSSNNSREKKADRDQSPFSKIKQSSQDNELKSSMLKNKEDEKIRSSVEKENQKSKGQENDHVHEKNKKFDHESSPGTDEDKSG
# Experimental: as §1, §2
# PPWD1 = target: T3, PPWD1 (Homo sapiens, UniProt Q96BP3); assay: chymotrypsin coupled PPIase assay, PPWD1 inhibition; type: biochemical; settings: result in words
# T3 sequence (Q96BP3 1-646): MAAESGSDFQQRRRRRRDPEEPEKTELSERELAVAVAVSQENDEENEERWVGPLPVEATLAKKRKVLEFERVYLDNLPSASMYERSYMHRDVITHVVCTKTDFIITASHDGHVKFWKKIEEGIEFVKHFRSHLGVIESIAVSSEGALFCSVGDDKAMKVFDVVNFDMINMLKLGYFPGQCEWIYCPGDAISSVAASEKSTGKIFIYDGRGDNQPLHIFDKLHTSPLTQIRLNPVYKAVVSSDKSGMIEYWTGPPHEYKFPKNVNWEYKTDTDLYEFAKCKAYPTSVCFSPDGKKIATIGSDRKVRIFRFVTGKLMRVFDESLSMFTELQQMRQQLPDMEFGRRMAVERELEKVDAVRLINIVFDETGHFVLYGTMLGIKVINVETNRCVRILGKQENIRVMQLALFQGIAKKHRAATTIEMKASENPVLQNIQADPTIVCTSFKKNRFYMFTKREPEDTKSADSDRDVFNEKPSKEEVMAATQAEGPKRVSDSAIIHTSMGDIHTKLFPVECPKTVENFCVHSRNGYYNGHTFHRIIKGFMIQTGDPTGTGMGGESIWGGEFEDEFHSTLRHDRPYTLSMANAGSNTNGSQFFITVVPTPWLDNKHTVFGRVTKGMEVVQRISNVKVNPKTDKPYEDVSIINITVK
# Experimental: as §1, §2
# CypH = CypH (Homo sapiens, UniProt O43447); assay: chymotrypsin coupled PPIase assay, CypH inhibition; type: biochemical; settings: result in words
# Chain of CypH (O43447 whole entry): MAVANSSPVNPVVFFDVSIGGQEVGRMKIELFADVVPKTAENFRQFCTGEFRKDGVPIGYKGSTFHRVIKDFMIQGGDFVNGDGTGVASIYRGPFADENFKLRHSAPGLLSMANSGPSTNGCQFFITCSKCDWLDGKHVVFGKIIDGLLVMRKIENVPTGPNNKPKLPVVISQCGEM
# Experimental: as §1, §2
# [1] = tested on: mPTP in isolated mice kidney mitochondria; assay: inhibition of mPTP in isolated mitochondria (tolerated Ca2+ pulses before full mPTP opening); settings: result in words
# Experimental: In isolated mice kidney mitochondria, the maximum number of Ca^2+ pulses that could be tolerated before full mPTP opening was measured (see FIG. 24).
# [2] = tested on: 10 other cyclophilins with reported prolyl isomerase activity; assay: cyclophilin specificity screen: CypD against the other cyclophilins; type: biochemical
# Description: (§3) The selectivity of a compound described herein in inhibiting the activity of a first cyclophilin (e.g., CypD) over a second cyclophilin may be measured by the quotient of the IC50 value of the compound in inhibiting the activity of the second cyclophilin over the IC50 value of the compound in inhibiting the activity of the first cyclophilin. The selectivity of a compound described herein in modulating the activity of a first cyclophilin over a second cyclophilin may also be measured by the quotient of the Kd value of an adduct of the compound and the second cyclophilin over the Kd value of an adduct of the compound and the first cyclophilin (e.g., CypD). […] In certain embodiments, selectivity for inhibiting a first cyclophilin over other cyclophilins is measured by Surface Plasmon Resonance (SPR) assays as disclosed in the Examples.
# (§4) Following the synthesis of the indicated library members, in vitro inhibition (IC50) assays of these hits were conducted to obtain IC50 inhibitory data. For the IC50 assays, a chymotrypsin coupled PPIase assay using Suc-AAPF-AMC as the peptide substrate was used, whereby isomerization of a peptide substrate Suc-AAPF-AMC from the cis to trans conformation allowed for proteolysis via excess a-chymotrypsin, releasing the C-terminal coumarin fluorophore.
# Subsequently, to determine if the compounds could both access the S2 pocket and display CypD specificity, JOMBtrans and compound 49 were screened against the 10 other cyclophilins with reported prolyl isomerase activity. […] Co-crystal structures of JOMBtrans and 49 were solved with CypD.
# CypD = CypD (Homo sapiens, UniProt P30405); assay: chymotrypsin coupled PPIase assay (Suc-AAPF-AMC substrate), CypD inhibition; type: biochemical
# Chain of CypD (P30405 30-207): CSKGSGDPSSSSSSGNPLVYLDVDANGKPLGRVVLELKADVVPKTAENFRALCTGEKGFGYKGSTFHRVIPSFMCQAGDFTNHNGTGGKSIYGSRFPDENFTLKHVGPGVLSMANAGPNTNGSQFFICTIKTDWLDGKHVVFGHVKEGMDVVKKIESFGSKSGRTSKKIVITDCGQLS
# Description: as §3, §4
compound,measurement,setting,value
NCCOCCNC(=O)[C@@H]1CCNC(=O)/C=C/C(=O)N2CCC[C@](Cc3ccccc3)(C2)C(=O)N[C@@H](Cc2ccc(C(=O)c3ccccc3)cc2)C(=O)NCc2ccccc2CC(=O)N1 [A-1],inhibition of NKTR,NKTR,abolished inhibition
same,inhibition of CypG,CypG,abolished inhibition
same,inhibition of PPWD1,PPWD1,abolished inhibition
same,inhibition of CypH,CypH,abolished inhibition
CC(C)(C)c1ccc(C[C@@H]2NC(=O)[C@]3(Cc4ccccc4)CCCN(C3)C(=O)/C=C/C(=O)NCC[C@@H](C(=O)NCCOCCN)NC(=O)Cc3ccccc3CNC2=O)cc1 [A-9],inhibition of NKTR,NKTR,abolished inhibition
same,inhibition of CypG,CypG,abolished inhibition
same,inhibition of PPWD1,PPWD1,abolished inhibition
same,inhibition of CypH,CypH,abolished inhibition
CC(=O)c1ccc(-c2ccc(C[C@@H]3NC(=O)[C@]4(Cc5ccccc5)CCCN(C4)C(=O)/C=C/C(=O)NCC[C@@H](C(N)=O)NC(=O)Cc4ccccc4CNC3=O)cc2)cc1 [A-22b],number of tolerated Ca2+ pulses before full mPTP opening,[1],extended pulse number
NCCOCCNC(=O)[C@@H]1CCNC(=O)/C=C/C(=O)N2CCC[C@](Cc3ccccc3)(C2)C(=O)N[C@@H](Cc2ccc(-c3ccc(C(=O)O)cc3)cc2)C(=O)NCc2ccccc2CC(=O)N1 [A-54],specificity / selectivity profile for CypD (in words),[2]; result in words,best specificity profiles; also recorded: preference for CypD
Cc1cc(C(=O)O)ccc1-c1ccc(C[C@@H]2NC(=O)[C@]3(Cc4ccccc4)CCCN(C3)C(=O)/C=C/C(=O)NCC[C@@H](C(=O)NCCOCCN)NC(=O)Cc3ccccc3CNC2=O)cc1 [A-57],specificity / selectivity profile for CypD (in words),[2]; result in words,best specificity profiles; also recorded: preference for CypD
NCCOCCNC(=O)[C@@H]1CCNC(=O)/C=C/C(=O)N2CCC[C@](Cc3ccccc3)(C2)C(=O)N[C@@H](Cc2ccc(-c3ccc(CC(=O)O)cc3)cc2)C(=O)NCc2ccccc2CC(=O)N1 [A-63],specificity / selectivity profile for CypD (in words),[2]; result in words,preference for CypD
NC(=O)[C@@H]1CCNC(=O)/C=C/C(=O)N2CCC[C@](Cc3ccccc3)(C2)C(=O)N[C@@H](Cc2ccc(-c3ccc(CCC(=O)O)cc3)cc2)C(=O)NCc2ccccc2CC(=O)N1 [A-81b],number of tolerated Ca2+ pulses before full mPTP opening,[1],extended pulse number; also recorded: almost as potent as CsA
NCCOCCNC(=O)[C@@H]1CCNC(=O)/C=C/C(=O)N2CCC[C@](Cc3ccccc3)(C2)C(=O)N[C@@H](Cc2ccc(-c3ccc(/C=C/C(=O)O)cc3)cc2)C(=O)NCc2ccccc2CC(=O)N1 [A-82],specificity / selectivity profile for CypD (in words),[2]; result in words,preference for CypD
NCCOCCNC(=O)[C@@H]1CCNC(=O)/C=C/C(=O)N2CCC[C@](Cc3ccccc3)(C2)C(=O)N[C@@H](Cc2ccco2)C(=O)NCc2ccccc2CC(=O)N1 [compound 49],increase in potency compared to JOMBtrans,CypD,75 fold
same,IC50,CypD; read-out: potency for CypD,200 nM
same,potency for CypD (in words),CypD; result in words,low potency
same,specificity for CypD compared to any other cyclophilins,[2],approximately 10 fold
same,decrease in inhibition against other family members compared to CypD,[2]; result in words,at most a ten-fold decrease
same,specificity / selectivity profile for CypD (in words),[2]; result in words,low specificity; also recorded: very promiscuous cyclophilin inhibition
